# Experiments:
# HepG2 [1] = test: HepG2 inhibition at 10 uM (%) Cytotoxicity; format: functional; details: Homo sapiens
# Plasmodium falciparum [2] = test: Antimalarial activity: Asexual Blood Stage Plasmodium falciparum 3D7 IC50 (uM); format: functional, organism-based
# Plasmodium falciparum [3] = test: Antimalarial activity: Asexual Blood Stage Plasmodium falciparum Dd2 IC50 (uM); format: functional, organism-based
# Plasmodium berghei = test: Antimalarial activity: Liver Stage Plasmodium berghei sporozoite Luciferase assay: inhibition at 10 uM (%); format: functional
# Plasmodium falciparum [4] = test: Antimalarial activity: Asexual Blood Stage Plasmodium falciparum W2 IC50 (uM); format: functional, organism-based
# Plasmodium falciparum [5] = test: Antimalarial activity: Gametocytes Plasmodium falciparum NF54 Gametocytes Stage V: inhibition at 10 uM (%); format: functional
# [6] = test system: Mycobacterium tuberculosis; test: AntiMycobacterium tuberculosis activity 2-week GAST/Fe MIC (uM); format: functional; details: 336 h
# [7] = test system: Mycobacterium tuberculosis; test: AntiMycobacterium tuberculosis activity 1-week 7H9/ADC/Tw MIC (uM); format: functional; details: 168 h
# [8] = test system: Mycobacterium tuberculosis; test: AntiMycobacterium tuberculosis activity 1-week GAST/Fe MIC (uM); format: functional; details: 168 h
# [9] = test system: Mycobacterium tuberculosis; test: AntiMycobacterium tuberculosis activity 2-week 7H9/glucose/BSA/Tx MIC (uM); format: functional; details: 336 h
# [10] = test system: Mycobacterium tuberculosis; test: AntiMycobacterium tuberculosis activity day 21 MIC99 in 7H9/2.5mM butyrate/pH6/0.1mM nitrite MIC99 (uM); format: functional; details: 504 h
# [11] = test system: Mycobacterium tuberculosis; test: AntiMycobacterium tuberculosis activity 2-week 7H9/DPPC/cholesterol/BSA/Tx MIC (uM); format: functional; details: 336 h
# [12] = test system: Mycobacterium tuberculosis; test: AntiMycobacterium tuberculosis activity 1-week 7H9/cholesterol/BSA/Tx MIC (uM); format: functional; details: 168 h
# [13] = test system: Mycobacterium tuberculosis; test: AntiMycobacterium tuberculosis activity 2-week Alamar Blue 7H9/ADC/Tw MIC (uM); format: functional; details: 336 h
# [14] = test system: Mycobacterium tuberculosis; test: AntiMycobacterium tuberculosis activity day 21 in 7H9/2.5mM butyrate/pH6/0.1mM nitrite MIC90 (uM); format: functional; details: 504 h
# [15] = test system: Mycobacterium tuberculosis; test: AntiMycobacterium tuberculosis activity 1-week 7H9/glucose/BSA/Tx MIC (uM); format: functional; details: 168 h
# [16] = test system: Mycobacterium tuberculosis; test: AntiMycobacterium tuberculosis activity 2-week Alamar Blue 7H9/cholesterol/BSA/Tx MIC (uM); format: functional; details: 336 h
# [17] = test system: Mycobacterium tuberculosis; test: AntiMycobacterium tuberculosis activity Replicating form: Average MIC90 (uM); format: functional
# [18] = test system: Mycobacterium tuberculosis; test: AntiMycobacterium tuberculosis activity 1-week 7H9/DPPC/cholesterol/BSA/Tx MIC (uM); format: functional; details: 168 h
# HepG2 [19] = test: HepG2 CC50 (uM) Cytotoxicity; format: functional; details: Homo sapiens
# [20] = test system: Mycobacterium tuberculosis; test: AntiMycobacterium tuberculosis activity 2-week 7H9/ADC/Tw MIC (uM); format: functional; details: 336 h
# [21] = test system: Mycobacterium tuberculosis; test: (§1) AntiMycobacterium tuberculosis activity day 10 in 7H9/2.5mM butyrate/pH6/0.1mM nitrite MIC90 (uM); format: functional; details: 240 h
# [22] = test system: Mycobacterium tuberculosis; test: as §1; format: functional; details: 240 h; remark: listed apart in the source
# [23] = test system: Mycobacterium tuberculosis; test: AntiMycobacterium tuberculosis activity Non-Replicating form: Average MIC90 (uM); format: functional
Structure (SMILES),inhibition at 10 µM (HepG2 [1]),IC50 (Plasmodium falciparum [2]),MIC [6],MIC [7],MIC [8],MIC [9],MIC [10],MIC [11],MIC [12],MIC [13],MIC90 [14],MIC [15],MIC [16],MIC90 [17],MIC [18],CC50 (HepG2 [19]),MIC [20],MIC90 [21],MIC90 [22],MIC90 [23],further results
Cc1ccc2[nH]c3c(NCCN(C)C)ncnc3c2c1,4%,790 nM,–,–,–,–,–,–,–,–,–,–,–,–,–,–,–,–,–,–,IC50 (Plasmodium falciparum [3]): 1310 nM; Inhibition (Plasmodium berghei): 0%; IC50 (Plasmodium falciparum [4]): 4000 nM; Inhibition (Plasmodium falciparum [5]): 21%
COc1cc2ncnc(NC3CCN(Cc4ccccc4)CC3)c2cc1OC,36%,620 nM,–,–,–,–,–,–,–,–,–,–,–,–,–,–,–,–,–,–,IC50 (Plasmodium falciparum [3]): 970 nM; Inhibition (Plasmodium berghei): 46%; IC50 (Plasmodium falciparum [4]): 1560 nM; Inhibition (Plasmodium falciparum [5]): 3%
CC1CCCN(C(=O)C(C)Nc2cc(Cl)ccc2N2CCOCC2)C1 (stereo not given),13%,520 nM,–,–,–,–,–,–,–,–,–,–,–,–,–,–,–,–,–,–,IC50 (Plasmodium falciparum [3]): 1320 nM; Inhibition (Plasmodium berghei): 46%; IC50 (Plasmodium falciparum [4]): 880 nM; Inhibition (Plasmodium falciparum [5]): 9.53%
FC(F)(F)c1cnc(Sc2nnc(-c3ccncc3)o2)c(Cl)c1,28%,270 nM,–,–,–,–,–,–,–,–,–,–,–,–,–,–,–,–,–,–,IC50 (Plasmodium falciparum [3]): 200 nM; Inhibition (Plasmodium berghei): 75%; IC50 (Plasmodium falciparum [4]): 470 nM; Inhibition (Plasmodium falciparum [5]): 0%
Cc1cc(Cl)c(S(=O)(=O)N2CCCC2)cc1OCC(=O)NC1CCCCC1,32%,300 nM,–,–,–,–,–,–,–,–,–,–,–,–,–,–,–,–,–,–,IC50 (Plasmodium falciparum [3]): 210 nM; Inhibition (Plasmodium berghei): 81%; IC50 (Plasmodium falciparum [4]): 160 nM; Inhibition (Plasmodium falciparum [5]): 0%
O=C(NC1CC1)c1ccc(CSCc2ccccc2Cl)o1,33%,1420 nM,–,–,–,–,–,–,–,–,–,–,–,–,–,–,–,–,–,–,IC50 (Plasmodium falciparum [3]): > 2000 nM; Inhibition (Plasmodium berghei): 96%; Inhibition (Plasmodium falciparum [5]): 14.9%
Cc1ccc(NC(=O)CC2COc3ccccc3O2)cc1Cl (stereo not given),–,–,12.5 µM,37 µM,9.4 µM,25 µM,> 50 µM,37 µM,19 µM,50 µM,50 µM,19 µM,25 µM,53.8 µM,19 µM,66700 nM,50 µM,> 50 µM,50 µM,56.9 µM,–
O=C(NCc1cc(Cl)cc(Cl)c1)c1c(C(F)(F)F)nc2ccccn12,–,–,0.39 µM,12.5 µM,0.1 µM,> 50 µM,> 50 µM,12.5 µM,2.3 µM,12.5 µM,12.5 µM,> 50 µM,1.2 µM,> 100 µM,4.7 µM,38300 nM,37 µM,> 50 µM,1.5 µM,2.93 µM,–
Cn1c(=O)c2c(S(C)(=O)=O)snc2n(C)c1=O,–,–,6.25 µM,19 µM,4.7 µM,19 µM,12.5 µM,37 µM,25 µM,25 µM,12.5 µM,12.5 µM,25 µM,15.4 µM,19 µM,1100 nM,25 µM,12.5 µM,6.25 µM,< 0.23 µM,–
O=C(C1CCN(c2cc(-n3cccc3)ncn2)CC1)N1CCc2ccccc2C1,–,–,0.6 µM,0.78 µM,0.39 µM,2.3 µM,> 50 µM,3.13 µM,3.13 µM,1.56 µM,50 µM,2.3 µM,3.13 µM,7.41 µM,3.13 µM,> 100000 nM,1.56 µM,> 50 µM,12.5 µM,7.62 µM,–
Cn1ccnc1CNCCS(=O)(=O)c1cccc(Nc2ccc(-c3cccc(F)c3)cn2)c1,–,–,25 µM,50 µM,25 µM,> 50 µM,> 50 µM,≥ 50 µM,25 µM,> 50 µM,> 50 µM,19 µM,37 µM,> 100 µM,12.5 µM,46100 nM,> 50 µM,> 50 µM,> 50 µM,> 100 µM,–
CCCn1c(CNc2ccccc2O)nc2ccccc21,–,–,1.56 µM,9.4 µM,1.56 µM,12.5 µM,> 50 µM,6.25 µM,6.25 µM,6.25 µM,6.25 µM,12.5 µM,6.25 µM,12.7 µM,6.25 µM,84100 nM,9.4 µM,> 50 µM,3.12 µM,7.04 µM,–
COc1ccc2nc(C)cc(OCC(=O)Nc3ccccc3OC)c2c1,–,–,0.1 µM,37 µM,0.05 µM,50 µM,> 50 µM,25 µM,12.5 µM,2.3 µM,> 50 µM,25 µM,2.3 µM,> 50 µM,1.56 µM,57400 nM,> 50 µM,> 50 µM,> 50 µM,1.61 µM,–
Nc1cccnc1Nc1ccc(Cl)cc1,–,–,50 µM,> 50 µM,50 µM,50 µM,> 50 µM,19 µM,9.4 µM,37 µM,50 µM,50 µM,4.7 µM,4.3 µM,12.5 µM,9000 nM,> 50 µM,> 50 µM,12.5 µM,3.65 µM,–
COc1ccc(CCN2CCC(NCc3cccc(N(C)C)c3)CC2)cc1,6%,1200 nM,–,–,–,–,–,–,–,–,–,–,–,–,–,–,–,–,–,–,IC50 (Plasmodium falciparum [3]): 3050 nM; Inhibition (Plasmodium berghei): 67%; IC50 (Plasmodium falciparum [4]): 4470 nM; Inhibition (Plasmodium falciparum [5]): 4.11%

# From ChEMBL document CHEMBL3832761, “MMV Pathogen Box Bioactivity Data” (2017)
